# Laboratory results from patent publication US20140249135A1, “PIM KINASE INHIBITORS AND METHODS OF THEIR USE” (NOVARTIS AG, priority 2007, published 2014).
# pIC50: −log10 of the molar value. Read-outs that look alike come from different tables or passages of the source.
# What was measured:
# Format in all cases: biochemical
# Pim2 kinase = Pim2 kinase (Homo sapiens, UniProt Q9P1W9); experiment: Pim2 ATP depletion assay; conditions: for IC50: read-out: IC50 (μM) PIM2; for pIC50: read-out: PIM2 IC50;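 on all read-outs here: Luciferase-based luminescent readout of ATP remaining after PIM2 phosphorylates a BAD peptide, final 5 nM enzyme, 4 µM ATP, 10 µM peptide, 2.5% DMSO, run to roughly half ATP consumption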
# Chain of Pim2 kinase (Q9P1W9 whole entry): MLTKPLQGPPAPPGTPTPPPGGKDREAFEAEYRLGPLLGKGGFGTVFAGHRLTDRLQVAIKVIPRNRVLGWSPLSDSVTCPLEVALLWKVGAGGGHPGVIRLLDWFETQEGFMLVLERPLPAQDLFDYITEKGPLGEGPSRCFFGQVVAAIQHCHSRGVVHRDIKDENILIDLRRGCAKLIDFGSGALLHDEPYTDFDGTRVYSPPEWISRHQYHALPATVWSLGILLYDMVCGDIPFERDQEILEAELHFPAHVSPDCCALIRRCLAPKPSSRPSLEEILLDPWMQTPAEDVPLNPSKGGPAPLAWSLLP
# Pim3 kinase = Pim3 kinase (Homo sapiens, UniProt Q86V86); experiment: Pim3 ATP depletion assay; conditions: for IC50: read-out: IC50 (μM) PIM3; for pIC50: read-out: PIM3 IC50
# Pim1 kinase = Pim1 kinase (Homo sapiens, UniProt P11309); experiment: Pim1 ATP depletion assay; conditions: Pim1 ATP depletion assay; for IC50: read-out: IC50 (μM) PIM1; for pIC50: read-out: PIM1 IC50;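 on all read-outs here: Luciferase-luciferin luminescence readout of residual ATP after PIM1 transfers phosphate to a peptide substrate, 40 µM ATP added, reaction run to roughly half ATP consumption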
# Chain of Pim1 kinase (P11309 whole entry): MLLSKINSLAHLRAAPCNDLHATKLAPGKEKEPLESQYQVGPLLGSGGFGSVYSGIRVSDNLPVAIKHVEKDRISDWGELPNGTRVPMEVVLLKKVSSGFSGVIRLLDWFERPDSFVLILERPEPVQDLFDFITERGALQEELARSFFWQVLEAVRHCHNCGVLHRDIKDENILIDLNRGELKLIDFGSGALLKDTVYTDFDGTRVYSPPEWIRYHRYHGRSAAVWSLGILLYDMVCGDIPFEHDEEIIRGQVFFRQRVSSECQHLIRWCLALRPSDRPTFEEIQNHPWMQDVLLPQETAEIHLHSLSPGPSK
Structure (SMILES),IC50 (Pim2 kinase),IC50 (Pim3 kinase),IC50 (Pim1 kinase),pIC50 (Pim2 kinase),pIC50 (Pim3 kinase),pIC50 (Pim1 kinase)
"Nc1ccc(-c2c(F)cccc2F)nc1C(=O)Nc1cnccc1N1CC[C@@H]2OC(=O)N[C@@H]2C1 [Example 303, 3-Amino-6-(2,6-difluoro-phenyl)-pyridine-2-carboxylic acid [4-(2-oxo-hexahydro-oxazolo[4,5-c]pyridin-5-yl)-pyridin-3-yl]-amide]",< 1 µM,< 1 µM,< 1 µM,–,–,–
"Nc1ccc(-c2ccc(CN3CCOCC3)cc2)nc1C(=O)Nc1cnccc1N1CCC[C@H](N)C1 [Example 567, 3-Amino-6-(4-morpholin-4-ylmethyl-phenyl)-pyridine-2-carboxylic acid (3-amino-3,4,5,6-tetrahydro-2H-[1,4′]bipyridinyl-3′-yl)-amide]",–,–,–,> 6.00,> 6.00,> 6.00
"Nc1ccc(-c2ccc(-c3cccs3)s2)nc1C(=O)Nc1cnccc1N1CCC[C@H](N)C1 [Example 446, 3-Amino-6-[2,2′]bithiophenyl-5-yl-pyridine-2-carboxylic acid (3-amino-3,4,5,6-tetrahydro-2H-[1,4′]bipyridinyl-3′-yl)-amide]",< 1 µM,< 1 µM,< 1 µM,–,–,–
"COc1ncccc1-c1nc(C(=O)Nc2cnccc2N2CCC[C@H](N)C2)c(N)cc1F [Example 511, 5-Amino-3-fluoro-2′-methoxy-[2,3′]bipyridinyl-6-carboxylic acid (3-amino-3,4,5,6-tetrahydro-2H-[1,4′]bipyridinyl-3′-yl)-amide]",< 1 µM,< 1 µM,< 1 µM,–,–,–
"Cc1nc(N)cc(-c2ccncc2NC(=O)c2nc(-c3ccccc3F)ncc2N)n1 [Example 272, 5-Amino-2-(2-fluoro-phenyl)-pyrimidine-4-carboxylic acid [4-(6-amino-2-methyl-pyrimidin-4-yl)-pyridin-3-yl]-amide]",< 1 µM,< 1 µM,< 1 µM,–,–,–
"CN(C)C(=O)c1ccc(F)c(-c2nc(C(=O)Nc3cnccc3N3CCC[C@H](N)C3)c(N)cc2F)c1 [Example 515, 3-Amino-6-(5-dimethylcarbamoyl-2-fluoro-phenyl)-5-fluoro-pyridine-2-carboxylic acid (3-amino-3,4,5,6-tetrahydro-2H-[1,4′]bipyridinyl-3′-yl)-amide]",< 1 µM,< 1 µM,< 1 µM,–,–,–
"NCCC(=O)N1CCN(c2ccncc2NC(=O)c2nc(-c3ccccc3F)ccc2N)CC1 [Example 251, 3-Amino-6-(2-fluoro-phenyl)-pyridine-2-carboxylic acid {4-[4-(3-amino-propionyl)-piperazin-1-yl]-pyridin-3-yl}-amide]",< 1 µM,< 1 µM,< 1 µM,–,–,–
"Nc1cc(-c2ccncc2NC(=O)c2cccc(-c3ccccc3)n2)nc(C(F)(F)F)n1 [Example 530, 6-Phenyl-pyridine-2-carboxylic acid [4-(6-amino-2-trifluoromethyl-pyrimidin-4-yl)-pyridin-3-yl]-amide]",< 1 µM,< 1 µM,< 1 µM,–,–,–
"COc1cccc(-c2ccc(N)c(C(=O)Nc3cnccc3N3CCC[C@H](N)C3)n2)c1F [Example 471, 3-Amino-6-(2-fluoro-3-methoxy-phenyl)-pyridine-2-carboxylic acid (3-amino-3,4,5,6-tetrahydro-2H-[1,4′]bipyridinyl-3′-yl)-amide]",< 1 µM,< 1 µM,< 1 µM,–,–,–
"CC1CC(N)CN(c2ccncc2NC(=O)c2nc(C3CCCCC3)ccc2N)C1 (stereo not drawn) [Example 283, 3-Amino-6-cyclohexyl-pyridine-2-carboxylic acid (3-amino-5-methyl-3,4,5,6-tetrahydro-2H-[1,4′]bipyridinyl-3′-yl)-amide]",< 1 µM,< 1 µM,< 1 µM,–,–,–
"COC(=O)c1nc(-c2nc(C(=O)Nc3cnccc3N3CCC[C@H](N)C3)c(N)cc2F)c(F)cc1N [Example 742, 5,5′-Diamino-6′-(3-amino-3,4,5,6-tetrahydro-2H-[1,4′]bi-pyridinyl-3′-ylcarbamoyl)-3,3′-difluoro-[2,2′]bipyridinyl-6-carboxylic acid methyl ester]",–,–,–,> 6.00,> 6.00,> 6.00
"Cc1cc(-c2ccncc2NC(=O)c2nc(-c3cc(C(=O)NC(C)C)ccc3F)c(F)cc2N)nc(N)n1 [Example 560, 3-Amino-5-fluoro-6-(2-fluoro-5-isopropylcarbamoyl-phenyl)-pyridine-2-carboxylic acid [4-(2-amino-6-methyl-pyrimidin-4-yl)-pyridin-3-yl]-amide]",–,–,–,> 6.00,> 6.00,> 6.00
"Cc1cc(-c2ccncc2NC(=O)c2nc(-c3ncccc3F)ccc2N)cc(N)n1 [Example 746, 5-Amino-3′-fluoro-[2,2′]bi-pyridinyl-6-carboxylic acid (2′-amino-6′-methyl-[4,4′]bi-pyridinyl-3-yl)-amide]",–,–,–,> 6.00,> 6.00,> 6.00
"Nc1ccc(-c2c(F)cccc2F)nc1C(=O)Nc1cnccc1-c1cc(F)nc(F)c1 [Example 607, 3-amino-N-(2′,6′-difluoro-4,4′-bipyridin-3-yl)-6-(2,6-difluorophenyl)pyridine-2-carboxamide]",–,–,–,> 6.00,> 6.00,> 6.00
"CC(C)NC(=O)c1ccc(F)c(-c2ccc(N)c(C(=O)Nc3cnccc3N3CCC[C@H](N)C3)n2)c1F [Example 503, 3-Amino-6-(2,6-difluoro-3-isopropylcarbamoyl-phenyl)-pyridine-2-carboxylic acid (3-amino-3,4,5,6-tetrahydro-2H-[1,4′]bipyridinyl-3′-yl)-amide]",< 1 µM,< 1 µM,< 1 µM,–,–,–
"CN1CCN(c2ccc(-c3ccc(N)c(C(=O)Nc4cnccc4-c4cc(N)nc(C(F)(F)F)n4)n3)cc2)CC1 [Example 574, 3-Amino-6-[4-(4-methyl-piperazin-1-yl)-phenyl]-pyridine-2-carboxylic acid [4-(6-amino-2-trifluoromethyl-pyrimidin-4-yl)-pyridin-3-yl]-amide]",–,–,–,> 6.00,> 6.00,> 6.00
"Nc1ccc(-c2cncs2)nc1C(=O)Nc1cnccc1N1CCC[C@H](N)C1 [Example 688, 3-Amino-6-thiazol-5-yl-pyridine-2-carboxylic acid (3-amino-3,4,5,6-tetrahydro-2H-[1,4′]bipyridinyl-3′-yl)-amide]",–,–,–,> 6.00,> 6.00,> 6.00
"Nc1ccc(-c2c(F)ccc(OCc3ccccc3F)c2F)nc1C(=O)Nc1cnccc1N1CCC[C@H](N)C1 [Example 465, 3-Amino-6-[2,6-difluoro-3-(2-fluoro-benzyloxy)-phenyl]-pyridine-2-carboxylic acid (3-amino-3,4,5,6-tetrahydro-2H-[1,4′]bipyridinyl-3′-yl)-amide]",< 1 µM,< 1 µM,< 1 µM,–,–,–
"Nc1ccc(-c2ccc(F)nc2N)nc1C(=O)Nc1cnccc1N1CCC[C@H](N)C1 [Example 408, 5,2′-diamino-6′-fluoro-[2,3′]bi-pyridinyl-6-carboxylic acid ((S)-3-amino-3,4,5,6-tetrahydro-2H-[1,4′]bipyridinyl-3′-yl)-amide]",< 1 µM,< 1 µM,< 1 µM,–,–,–
"Nc1cc(F)c(-c2ncccc2Cl)nc1C(=O)Nc1cnccc1N1CCC[C@H](N)C1 [Example 743, 5-Amino-3′-chloro-3-fluoro-[2,2′]bipyridinyl-6-carboxylic acid (3-amino-3,4,5,6-tetra-hydro-2H-[1,4′]bipyridinyl-3′-yl)-amide]",–,–,–,> 6.00,> 6.00,> 6.00
"Nc1ccc(-c2c(F)cccc2F)nc1C(=O)Nc1cnccc1N1C[C@@H](N)C[C@@H](F)C1 [Example 293, 3-Amino-6-(2,6-difluoro-phenyl)-pyridine-2-carboxylic acid (3-amino-5-fluoro-3,4,5,6-tetrahydro-2H-[1,4′]bipyridinyl-3′-yl)-amide]",< 1 µM,< 1 µM,< 1 µM,–,–,–
"Nc1ccc(-c2c(F)cccc2F)nc1C(=O)Nc1cnccc1N1CCCCC1 [Example 588, 3-amino-6-(2,6-difluoro-phenyl)-pyridine-2-carboxylic acid (3,4,5,6-tetrahydro-2H-[1,4′]bipyridinyl-3′-yl)-amide]",–,–,–,> 6.00,> 6.00,> 6.00
"CC(C)NC(=O)c1ccc(F)c(-c2ccc(N)c(C(=O)Nc3cnccc3N3CC[C@@H](F)[C@H](N)C3)n2)c1F [Example 733, 3-Amino-6-(2,6-difluoro-3-isopropylcarbamoyl-phenyl)-pyridine-2-carboxylic acid (3-amino-4-fluoro-3,4,5,6-tetra-hydro-2H-[1,4′]bipyridinyl-3′-yl)-amide]",–,–,–,> 6.00,> 6.00,> 6.00
"Nc1ccc(-c2cccc(Cl)c2F)nc1C(=O)Nc1cnccc1N1CCCC(O)C1 (stereo not drawn) [Example 655, 3-Amino-6-(3-chloro-2-fluoro-phenyl)-pyridine-2-carboxylic acid (3-hydroxy-3,4,5,6-tetra-hydro-2H-[1,4′]bipyridinyl-3′-yl)-amide]",–,–,–,> 6.00,> 6.00,> 6.00
"Nc1cc(-c2ccncc2NC(=O)c2nc(C3=CCNCC3)ccc2N)nc(C(F)(F)F)n1 [Example 526, 5-Amino-1′,2′,3′,6′-tetrahydro-[2,4′]bipyridinyl-6-carboxylic acid [4-(6-amino-2-trifluoromethyl-pyrimidin-4-yl)-byridin-3-yl]-amide]",< 1 µM,< 1 µM,< 1 µM,–,–,–
"Nc1ccc(-c2c(F)cccc2F)nc1C(=O)Nc1cnccc1N1CC[C@@H](F)[C@H](N)C1 [Example 277, 3-Amino-6-(2,6-difluoro-phenyl)-pyridine-2-carboxylic acid (3-amino-4-fluoro-3,4,5,6-tetrahydro-2H-[1,4′]bipyridinyl-3′-yl)-amide]",< 1 µM,< 1 µM,< 1 µM,–,–,–
